# Measurements taken from patent US5877202A, “Indole derivatives useful to treat estrogen-related neoplasms and disorders” (priority 1996, dated 1999).
# Where “and” joins values, the source holds several entries; their conditions need not be identical. Equal entries are not always repeated.
# How the values were obtained:
# [1] = tested on: MCF-7 human breast tumor cells; experiment: Clonigenic assay for MCF-7 human breast tumor cells; type: cell-based; conditions: for Colonies ± S.D.: 24 hours treatment, grown 22 days
# Procedure: MCF-7 cells (10^7) are added to 100 mm tissue culture dishes, allowed to adhere for 24 hours and then treated with either MDL 101,906 or ICI 164,384 for 24 hours. The cells are removed from the dishes with trypsin/EDTA, and washed twice by centrifugation. The cells were counted and 500 cells from each treatment group are added to triplicate wells of 6-well culture dishes. The cells are grown for 22 days. Colonies 1 mm diameter or greater are counted.
# [2] = tested on: mouse estrogen receptor; conditions: Fawell, S. E., et al. (1990); cited from earlier work
# [3] = target: T1, estrogen receptors (Homo sapiens, UniProt P03372); experiment: Quantification of estrogen receptors in nuclear and whole cell extracts (ER-EIA monoclonal kit), Table 1; type: cell-based, human (MCF-7 human breast cancer cells); conditions: estrogen receptors in nuclear extracts
# T1 construct: estrogen receptor extracted from MCF-7 human breast tumor cells; endogenous in cells; host or cells: MCF-7 human breast cancer cells (nuclear extract, cytosol or whole cell extract)
# T1 sequence (P03372 1-595): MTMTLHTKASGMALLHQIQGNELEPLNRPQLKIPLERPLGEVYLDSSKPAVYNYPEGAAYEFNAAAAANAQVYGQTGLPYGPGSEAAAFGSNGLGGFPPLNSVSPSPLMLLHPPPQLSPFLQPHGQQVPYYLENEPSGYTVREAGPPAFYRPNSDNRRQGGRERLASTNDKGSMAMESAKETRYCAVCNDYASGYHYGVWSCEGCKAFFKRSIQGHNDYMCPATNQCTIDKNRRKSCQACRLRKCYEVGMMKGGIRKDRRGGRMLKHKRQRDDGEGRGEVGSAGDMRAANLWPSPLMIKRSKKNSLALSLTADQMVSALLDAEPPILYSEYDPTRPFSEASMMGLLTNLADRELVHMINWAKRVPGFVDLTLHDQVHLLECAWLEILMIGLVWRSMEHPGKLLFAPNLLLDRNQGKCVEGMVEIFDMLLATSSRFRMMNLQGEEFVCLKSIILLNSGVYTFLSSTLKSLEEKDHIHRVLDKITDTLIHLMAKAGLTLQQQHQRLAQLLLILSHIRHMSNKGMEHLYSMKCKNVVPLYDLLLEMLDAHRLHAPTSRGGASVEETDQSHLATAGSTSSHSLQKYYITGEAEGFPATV
# Procedure: (§1) Monolayers of MCF-7 human breast cancer cells are rinsed once with HBSS and scraped off culture dishes into 15 ml conical tubes with 5 ml HBSS. The cells are sedimented by centrifugation at 250×g for five minutes, suspended in 1 ml HBSS and sedimented by centrifugation at 2000 rpm in a tabletop centrifuge for five minutes in a 1.5 ml microfuge tube. Two PCV of a solution of a lysis buffer (25 mM HEPES, pH 7.8, 50 mM KCl, 0.5% Nonidet P 40, 2 mM dithiothreitol, 0.2 mM phenylmethylsulfonyl fluoride, 0.05 mg/ml leupeptin, 0.05 mg/ml aprotinin, 0.0025 mg/ml pepstatin, 0.005 mg/ml antipain) are added and cells are kept on ice for 15 minutes. Lysed cells are centrifuged for 3 minutes at 10,000×g, supernatant decanted, and kept as the cytosol fraction. Pellets are suspended in two PCV of extraction buffer (25 mM HEPES, pH 7.8, 500 mM KCl, 10% glycerol, 2 mM dithiothreitol and the above protease inhibitors), mixed for 20 minutes by inversion at 4 degrees C. and centrifuged at 10,000×g for 20 minutes. The supernatant is decanted and saved as nuclear extract. Both the nuclear extract and the cytosol are dialyzed for two hours against dialysis buffer (25 mM HEPES, pH 7.8, 50 mM KCl, 10% glycerol, 2 mM dithiothreitol and the above protease inhibitors). Nuclear and cytosol fractions are stored frozen at -80 degrees C. until used for mobility shift assays or determination of estrogen receptor content.
# Whole cell extracts of tumor cells are prepared by the method of Reese and Katzenellenbogen, Nuc. Acids Res., 19: 6595-6602 (1991), with some modifications. Cell monolayers are rinsed once with HBSS, then scraped into HBSS and sedimented by centrifugation (5 min., 250×g). After resuspending in 1 mL HBSS, the cells are again sedimented at 250×g for 5 min at 4° C. The cell pellet is resuspended in lysis/extract buffer containing 20 mM Tris, pH 7.5, 10% glycerol (v/v), 0.5M sodium chloride and 0.5% NP-40 (v/v) and incubated on ice for 25 minutes, then the supernatants are dialyzed against 25 mM HEPES, pH 7.8, 10% glycerol (v/v), 0.5 mM dithiothreitol and 50 mM potassium chloride for 2 hours at 4° C. Both the lysis/extraction and the dialysis buffers contain protease inhibitors which included 0.5 mM phenylmethylsulfonylfluoride, 0.05 mg/mL leupeptin, 0.05 mg/mL aprotinin, 0.00-25 mg/mL pepstatin, and 0.005 mg/mL antipain. Dialyzed whole cell extracts are stored in aliquots at -80° C. until used.
# The protein concentration for nucleus and cytosol fractions are determined with a BIO-RAD kit, according to the manufacturer's instructions.
# Estrogen receptor levels in nuclear and whole cell extracts of tumor cells were quanitated using the ER-EIA monoclonal kit manufactured by Abbott Laboratories (Diagnostic Division) according to the kit instructions.
# receptors in nuclear extracts.
# .dagger.WCE refers to IC50 value for estrogen receptors in whole cel
# A slash dividing two numbers indicates the results of two separate
# [4] = target: T2, MCF-7 estrogen receptor (Homo sapiens, UniProt P03372); experiment: Competitive binding assay, Relative Binding Affinities on binding of estradiol to MCF-7 estrogen receptor
# T2 construct: estrogen receptor extracted from MCF-7 human breast tumor cells; endogenous in cells; host or cells: MCF-7 human breast cancer cells (nuclear extract, cytosol or whole cell extract)
# T2 sequence (P03372 1-595): T1 sequence (P03372 1-595)
# Procedure: Briefly, RBAs are determined from competitive binding assays with several concentrations of estradiol (E2) with and without test compound. After 16-18 hours of incubation at 4 degrees C., unbound [^3 H] E2 is separated from ER-bound [^3 H] E2. The IC50 is determined and the RBA is calculated as: […]
# [5] = target: T3, estrogen receptor binding to an estrogen response element (Homo sapiens, UniProt P03372); experiment: Inhibition of estrogen receptor binding to an estrogen response element in DNA mobility shift assays; type: biochemical, human (nuclear extract of MCF-7 human breast cancer cells)
# T3 construct: estrogen receptor extracted from MCF-7 human breast tumor cells; endogenous in cells; host or cells: MCF-7 human breast cancer cells (nuclear extract, cytosol or whole cell extract)
# T3 sequence (P03372 1-595): T1 sequence (P03372 1-595)
# Procedure: as §1
# Briefly, to each reaction tube was added 0.01 mg nuclear extract, 2 μg poly dIdC, 50 mM NaCl, 1 mM dithiothreitol and 10 mM Tris, pH 7.5 in a total volume of 0.01 ml and the mixture was kept at room temperature for 10 minutes. A ^32 P-labelled estrogen response element [ERE]
# [6] = tested on: estrogen receptor mRNA; experiment: Reduction of estrogen receptor mRNA levels in treated MCF-7 human breast tumor cells; type: cell-based;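 for Estrogen Receptor mRNA band intensity: Phosphoimager intensity of radioactive mRNA bands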
# Procedure: (§2) After treatment with 30 μM drug for 24 hr, total RNA is isolated according to the guanidinium isothiocyanate method using an RNA preparation kit from 5 Prime-3 Prime, Inc., following the manufacturer's instructions. The RNA is separated by formaldehyde gel electrophoresis and transferred to a nylon membrane.
# [7] = tested on: GAPDH mRNA; experiment: GAPDH mRNA levels in treated MCF-7 human breast tumor cells (positive control probe); type: cell-based; conditions: 30 μM, 24 hr;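 note: Phosphoimager intensity of radioactive mRNA bands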
# Procedure: as §2
# [8] = tested on: hormone-dependent breast cancer; conditions: cited from earlier work
# [9] = read-out: integrated volume of shifted ERE oligo as percentage of control, given as % inhibition
smiles,measurement,setting,value
"CCCCN(C)C(=O)CCCCCCCCCC[C@@H]1Cc2cc(O)ccc2[C@H]2CC[C@]3(C)[C@@H](O)CC[C@H]3[C@H]12 [ICI 164,384, 11-(3-17β-dihydroxyoestra-1,3,-5(10)-trien-7α-yl)-N-n-butyl-N-methylundecanamide, reference compound]",Colonies ± S.D.,[1]; 0.1 μM,48 ± 6
same,Colonies ± S.D.,[1]; 1.0 μM,40 ± 2
same,activity at 0.1 µM,"[1]; Homo sapiens, MCF7, 528 h, 0.1 μM, read-out: Colonies, % Control",145%
same,activity at 1 µM,"[1]; Homo sapiens, MCF7, 528 h, 1.0 μM, read-out: Colonies, % Control",121%
same,inhibition of DNA binding of the mouse estrogen receptor,[2],inhibit DNA binding of the mouse estrogen receptor by interfering with receptor dimerization
"CCCCN(C)C(=O)CCCCCCCNC(=O)Cc1c(-c2ccc(O)cc2)n(Cc2ccccc2)c2ccc(O)cc12 [MDL 103,324, 8-[[5-Hydroxy-1-benzyl-2-[(4-hydroxy)-phenyl]-1H-indol-3-yl]-acetylamino]-octanoic acid methyl-butyl-amide]",IC50,[3],18 µM
same,inhibition of estradiol binding to MCF-7 ER,[4]; doses of 100 or 200 nM,did not significantly inhibit
same,inhibition of estradiol binding to MCF-7 ER,"[4]; typically, at doses of 100 or 200 nM",less than 10%
same,IC50,[5],8.5 µM and 18 µM
same,inhibition at 2 µM,[5]; [9],60%
same,inhibition at 5 µM,[5]; [9],68%
same,inhibition at 10 µM,[5]; [9],58%
same,inhibition at 20 µM,[5]; [9],46%
same,inhibition at 30 µM,[5]; [9],50%
same,ER/GAPDH mean,"[6]; 30 μM, 24 hr, mean of replicates 1 and 2",0.74
same,ER/GAPDH,"[6]; 30 μM, 24 hr, replicate 1",0.61
same,Estrogen Receptor mRNA band intensity,"[6]; 30 μM, 24 hr, replicate 1","5,128"
same,ER/GAPDH,"[6]; 30 μM, 24 hr, replicate 2",0.87
same,Estrogen Receptor mRNA band intensity,"[6]; 30 μM, 24 hr, replicate 2","7,077"
same,activity at 30 µM,"[6]; Homo sapiens, MCF7, 24 h, read-out: ER/GAPDH % Control",20%
same,GAPDH mRNA band intensity,[7]; replicate 1,"8,300"
same,GAPDH mRNA band intensity,[7]; replicate 2,"8,118"
CC/C(=C(\c1ccccc1)c1ccc(OCCN(C)C)cc1)c1ccccc1 [tamoxifen],patients who do not respond to tamoxifen treatment despite presence of ERs in the malignant tissue,"[8]; Maass, H., et al., Cancer, 46:2783 (1980)",About 40%
same,toxicological problems associated with tamoxifen treatment,[8]; in vivo,"tumor flares, vaginal cornification and hypercalciemia"
